Results from patent US10772886B2, “CXCR-2 inhibitors for treating crystal arthropathy disorders” (ARDEA BIOSCIENCES, INC., priority 2016, dated 2020).

Key:
[1] = tested on: rat air pouch model of crystal-induced arthropathy (MSU); test: Rat air pouch model, Example 5 (Compound 2 in combination with colchicine); assay type: in vivo
Procedure: Sodium hydroxide (40 g, Fisher Scientific) was dissolved in de-ionized water (100 mL, dH2O) to provide a 10N solution. Uric acid (16 g, Sigma) was added to de-ionized water (3400 mL) containing sodium hydroxide solution (11.8 mL, 10N) and heated to 60° C. with constant stirring. […] The resulting clear solution was cooled to 4-8° C., resulting in the formation of crystals, which were isolated by filtration, washed three times with de-ionized wa[…]) and dried at 37° C. The dried mono sodium urate crystals were sifted into an air-tight container for storage. […] Methylcellulose (0.4 g, Sigma) was dissolved in de-ionized water (100 mL) to provide a 0.4% solution used as vehicle. […] Test compounds were suspended in vehicle to provide the desired concentrations, and diluted accordingly. […] Male Sprague-Dawley rats (Charles River Laboratories, 160-180 g) were received, individually examined and housed in cages of five rats each. The animals were in apparent good health with no clinical signs of disease or distress. The rats were placed in quarantine with daily inspections, ear notched for identification purposes and shaved at the nape of the neck. The rats were anesthetized (isoflurane), and the nape of the neck was cleansed with 70% isopropanol (Butler Animal Health Supply) followed by povidone-iodine solution (Ricca Chemical Co.). Sterile air (30 mL, 0.2 μm, Millipore) was injected subcutaneously using a 23 G×11⁄2 inch needle fixed to a 30 mL syringe. The rats were returned to routine housing with no adverse reactions observed. The rats were anesthetized (isoflurane), and the nape of the neck was cleansed with 70% isopropanol (Butler Animal Health Supply) followed by povidone-iodine solution (Ricca Chemical Co.). Sterile air (15 mL, 0.11 μm, Millipore) was injected subcutaneously using a 23 G×11⁄2 inch needle fixed to a 20 mL syringe. The rats were returned to routine housing with no adverse reactions observed. The rats were weighed and sorted into treatment groups based on average body weight. As appropriate, the rats were dosed orally with test compound or vehicle (saline alone). […] Thirty minutes after SC injection or two hours after PO dosing, MSU (15 mL) was injected into the air pouch using an 18 G×2 inch needle fitted to a 20 mL syringe. Control group was injected with 15 mL sterile saline (vehicle). The injection sites were closed (collodion, Macron) and the rats returned to their cages with no adverse effects observed. Four hours after MSU/saline injection, the rats were anesthetized and heparinized saline (5 mL, 10 U/mL) was injected into the air pouch. […] An aliquot of the exudate was transferred to green Eppendorf tubes for total white blood cell (WBC) measurement. After allowing the MSU crystals to settle out for ten minutes, an aliquot of the exudate was transferred to heparinized microtainer tubes (Becton Dickinson) for differential white blood cell counts. The remainder of the exudate was centrifuged and an aliquot of the supernatants was dispensed to labeled clear Eppendorf tubes and stored at -80° C. The rats were exsanguinated into pre-chilled serum separator tubes, processed to serum, and 0.5 mL aliquot was stored at -80° C. in labeled Eppendorf tubes. […] 90 rats were used, divided into 9 groups of 10 animals, as follows: [table]

[2] = tested on: rat air pouch model of crystal-induced arthropathy (MSU); test: Rat air pouch model, Example 8 (Compound 3 in combination with colchicine); assay type: in vivo
Procedure: Sodium hydroxide (40 g, Fisher Scientific) was dissolved in de-ionized water (100 mL, dH2O) to provide a 10N solution. Uric acid (16 g, Sigma) was added to de-ionized water (3400 mL) containing sodium hydroxide solution (11.8 mL, 10N) and heated to 60° C. with constant stirring. […] The resulting clear solution was cooled to 4-8° C., resulting in the formation of crystals, which were isolated by filtration, washed three times with de-ionized wa[…]) and dried at 37° C. The dried mono sodium urate crystals were sifted into an air-tight container for storage. […] Methylcellulose (0.4 g, Sigma) was dissolved in de-ionized water (100 mL) to provide a 0.4% solution used as vehicle. […] Test compounds were suspended in vehicle to provide the desired concentrations, and diluted accordingly. […] Male Sprague-Dawley rats (Charles River Laboratories, 160-180 g) were received, individually examined and housed in cages of five rats each. The animals were in apparent good health with no clinical signs of disease or distress. The rats were placed in quarantine with daily inspections, ear notched for identification purposes and shaved at the nape of the neck. The rats were anesthetized (isoflurane), and the nape of the neck was cleansed with 70% isopropanol (Butler Animal Health Supply) followed by povidone-iodine solution (Ricca Chemical Co.). Sterile air (30 mL, 0.2 μm, Millipore) was injected subcutaneously using a 23 G×11⁄2 inch needle fixed to a 30 mL syringe. The rats were returned to routine housing with no adverse reactions observed. The rats were anesthetized (isoflurane), and the nape of the neck was cleansed with 70% isopropanol (Butler Animal Health Supply) followed by povidone-iodine solution (Ricca Chemical Co.). Sterile air (15 mL, 0.11 μm, Millipore) was injected subcutaneously using a 23 G×11⁄2 inch needle fixed to a 20 mL syringe. The rats were returned to routine housing with no adverse reactions observed. The rats were weighed and sorted into treatment groups based on average body weight. As appropriate, the rats were dosed orally with test compound or vehicle (saline alone). […] Thirty minutes after SC injection or two hours after PO dosing, MSU (15 mL) was injected into the air pouch using an 18 G×2 inch needle fitted to a 20 mL syringe. Control group was injected with 15 mL sterile saline (vehicle). The injection sites were closed (collodion, Macron) and the rats returned to their cages with no adverse effects observed. Four hours after MSU/saline injection, the rats were anesthetized and heparinized saline (5 mL, 10 U/mL) was injected into the air pouch. […] An aliquot of the exudate was transferred to green Eppendorf tubes for total white blood cell (WBC) measurement. After allowing the MSU crystals to settle out for ten minutes, an aliquot of the exudate was transferred to heparinized microtainer tubes (Becton Dickinson) for differential white blood cell counts. The remainder of the exudate was centrifuged and an aliquot of the supernatants was dispensed to labeled clear Eppendorf tubes and stored at -80° C. The rats were exsanguinated into pre-chilled serum separator tubes, processed to serum, and 0.5 mL aliquot was stored at -80° C. in labeled Eppendorf tubes. […] [table]

[3] = 0.3 umol/kg PO + Colchicine 0.001 mpk SC, Group 6
[4] = 0.3 umol/kg PO + Colchicine 0.1 mpk SC, Group 8
[5] = 3.0 umol/kg PO + Colchicine 0.001 mpk SC, Group 7
[6] = 3.0 umol/kg PO + Colchicine 0.1 mpk SC, Group 9
[7] = 10.0 umol/kg PO + Colchicine 0.3 mpk SC, Group 10

COc1cc2c(c(OC)c1OC)-c1ccc(OC)c(=O)cc1[C@@H](NC(C)=O)CC2 [Colchicine, COLCHICINE, reference compound]
Avg Exudate Vol ([1]; 0.1 mpk (PO), Group 3): 9.7 mL | Avg Total WBC ([1]; 0.1 mpk (PO), Group 3): 221 ×10^6 | Neutrophils ([1]; 0.1 mpk (PO), Group 3): 163 ×10^6 | Avg Exudate Vol ([2]; 0.3 mpk SC, Group 3): 11.88 mL | Avg Total WBC ([2]; 0.3 mpk SC, Group 3): 170 ×10^6 | Neutrophils ([2]; 0.3 mpk SC, Group 3): 121.8 ×10^6 | Avg Exudate Vol ([2]; 0.5 mpk SC, Group 4): 7.62 mL | Avg Total WBC ([2]; 0.5 mpk SC, Group 4): 96.3 ×10^6 | Neutrophils ([2]; 0.5 mpk SC, Group 4): 64.6 ×10^6 | Avg Exudate Vol ([2]; 1.0 mpk SC, Group 5): 6.8 mL | Avg Total WBC ([2]; 1.0 mpk SC, Group 5): 41.5 ×10^6 | Neutrophils ([2]; 1.0 mpk SC, Group 5): 7.6 ×10^6

CC[C@@H](Nc1c(Nc2cccc(C(=O)N(C)C)c2O)c(=O)c1=O)c1ccc(C)o1 [Compound 2, (R)-2-hydroxy-N,N-dimethyl-3-((2-((1-(5-methylfuran-2-yl)propyl)amino)-3,4-dioxocyclobut-1-en-1-yl)amino)benzamide]
Avg Exudate Vol [1, 3]: 9.6 mL | Avg Total WBC [1, 3]: 337 ×10^6 | Neutrophils [1, 3]: 246 ×10^6 | Avg Exudate Vol [1, 4]: 7.9 mL | Avg Total WBC [1, 4]: 153 ×10^6 | Neutrophils [1, 4]: 123 ×10^6 | Avg Exudate Vol ([1]; 0.3 umol/kg PO, Group 4): 9.8 mL | Avg Total WBC ([1]; 0.3 umol/kg PO, Group 4): 365 ×10^6 | Neutrophils ([1]; 0.3 umol/kg PO, Group 4): 268 ×10^6 | Avg Exudate Vol [1, 5]: 8 mL | Avg Total WBC [1, 5]: 88 ×10^6 | Neutrophils [1, 5]: 26.7 ×10^6 | Avg Exudate Vol [1, 6]: 7.5 mL | Avg Total WBC [1, 6]: 76.8 ×10^6 | Neutrophils [1, 6]: 27.2 ×10^6 | Avg Exudate Vol ([1]; 3.0 umol/kg PO, Group 5): 7.0 mL | Avg Total WBC ([1]; 3.0 umol/kg PO, Group 5): 78.6 ×10^6 | Neutrophils ([1]; 3.0 umol/kg PO, Group 5): 16 ×10^6

C[C@@H](Oc1cc(NS(=O)(=O)N2CCC2)nc(SCc2cccc(F)c2F)n1)[C@@H](O)CO [Compound 3, N-(2-((2,3-difluorobenzyl)thio)-6-(((2R,3S)-3,4-dihydroxybutan-2-yl)oxy)pyrimidin-4-yl)azetidine-1-sulfonamide]
Avg Exudate Vol [2, 7]: 9.46 mL | Avg Total WBC [2, 7]: 69.1 ×10^6 | Neutrophils [2, 7]: 53.1 ×10^6 | Avg Exudate Vol ([2]; 10.0 umol/kg PO, Group 6): 10.93 mL | Avg Total WBC ([2]; 10.0 umol/kg PO, Group 6): 118 ×10^6 | Neutrophils ([2]; 10.0 umol/kg PO, Group 6): 83.3 ×10^6 | Avg Exudate Vol ([2]; 30.0 umol/kg PO, Group 7): 8.42 mL | Avg Total WBC ([2]; 30.0 umol/kg PO, Group 7): 70.5 ×10^6 | Neutrophils ([2]; 30.0 umol/kg PO, Group 7): 40.3 ×10^6 | Avg Exudate Vol ([2]; 100 umol/kg PO, Group 8): 6.56 mL | Avg Total WBC ([2]; 100 umol/kg PO, Group 8): 56.1 ×10^6 | Neutrophils ([2]; 100 umol/kg PO, Group 8): 25.2 ×10^6 | Avg Exudate Vol ([2]; 300 umol/kg PO, Group 9): 5.7 mL | Avg Total WBC ([2]; 300 umol/kg PO, Group 9): 24.7 ×10^6 | Neutrophils ([2]; 300 umol/kg PO, Group 9): 5.3 ×10^6
